# Experimental data published in patent publication US20100172944A1, “COMBINATION OF MONOSACCHARIDES WITH SUNSCREENS AND USE THEREOF” (L'OREAL, priority 2008, published 2010).
# Key:
# [1] = tested on: dermal fibroblasts of the reconstructed skin; assay: Proliferation of fibroblasts in whole reconstructed skin (propidium iodide nuclei count on frozen sections); type: cell-based, human; details: 5 mM; within 48 hours of treatment; vs control skin
# Excerpt: Rhamnose was studied on a model of whole reconstructed skin in order to measure its anti-ageing efficacy on the dermal compartment.
# Briefly, the model of reconstructed skin used is that described by Bell et al. (Bell E. et al., The reconstitution of living skin, J. Invest. Dermatol., 1983, July; 81): it includes a dermal equivalent on which is reconstructed a multistratified epidermis; the dermal equivalent is manufactured from acid-soluble collagen, culture medium containing serum and normal adult human fibroblasts. After 5 days of shrinkage, this equivalent is inoculated with keratinocytes and then cultured for 6 days in immersion and for 7 days in emersion in order to obtain a multistratified and differentiated epidermis having a horny layer.
# The reconstructed skin is treated with 5 mM rhamnose for 2 days and 5 days in the culture medium; after the treatment, the reconstructed skins are included in Tissue Tek in order to produce frozen sections 7 μm thick with a cryostat. […] Three frozen sections are prepared at random on each reconstructed skin; on each section, two microscopic fields (25× objective lens) are analysed by fluorescence microscopy and photographed. The dermal fibroblasts are thus counted for each reconstructed skin on six images in total representing the six microscopic fields considered. […]
# [2] = tested on: keratinocytes (HaCat line); assay: Proliferation of keratinocytes in culture medium deficient in growth factors (Cyquant, Nile red, XTT markers); type: cell-based; details: medium depleted in growth factors; compared with untreated control
# Protocol: The keratinocytes (HaCat line) are cultured under two conditions: whole defined culture medium (standard condition) and culture medium deficient in growth factors. This deficient medium gives rise to a controlled delay in cell proliferation. Under these conditions, it is then possible to measure the effects of compounds capable of compensating for the deficiency in growth factors of the culture medium and thus of relaunching the cell multiplication and/or of stimulating cell metabolism.
# The keratinocyte proliferation is measured by means of three markers on the same cell population: the level of DNA, which is proportional to the number of cells (Cyquant probe), the level of constituent polar lipids of cell membranes (Nile red probe) and the mitochondrial respiration, which reflects the general cell metabolism (XTT probe).
# type I procollagen = assay: Synthesis of procollagen 1 in reconstructed skin (indirect immunofluorescence); type: cell-based, human; details: for procollagen 1 synthesis: reconstructed skin
# Protocol: Conventional detection via indirect immunofluorescence of type I procollagen in the dermis of the reconstructed skin was also performed on other series of frozen sections (anti-procoll 1 antibody (MAB 1912 Millipore)+FTIC-coupled conjugate (112-095-068 Jackson Immunoresearch)). In order to obtain bearings within the cutaneous architecture during the microscopic examination of the sections, the cell nuclei of the keratinocytes and fibroblasts are localized by staining them with propidium iodide, as described above. Three frozen sections are prepared at random on each reconstructed skin and on each section, and two microscopic fields (25× objective lens) are analysed by fluorescence microscopy and photographed. The levels of fluorescence proportional to the amount of type I procollagen are compared between the control skin and the skin treated with rhamnose.
structure (smiles),measurement,setting,value
"C[C@H](O)[C@H](O)[C@@H](O)[C@@H](O)C=O [rhamnose, Rhamnose]",growth of the dermal fibroblasts of the reconstructed skin,[1],induces stimulation of growth
same,keratinocyte proliferation,[2],activate keratinocyte proliferation
same,green fluorescence proportional to the amount of type I procollagen,"type I procollagen; 1 mM for 120 hours, compared with control skin (FIG. 4)",marked increase in green fluorescence
same,procollagen 1 synthesis,type I procollagen; 1 mM,stimulation of procollagen 1 synthesis
same,procollagen 1 synthesis,type I procollagen; 5 mM,stimulation of procollagen 1 synthesis
